From patent publication US5747503A, “Selective inhibitors of biogenic amine transporters” (priority 1996, dated 1998)
“Also recorded” adds a separate entry of the source.

Key:
DA transporter = conditions: Kuhar et al. 1990; cited from earlier work
[1] = tested on: extracellular dopamine in the nucleus accumbens; assay: In vivo microdialysis of extracellular dopamine in nucleus accumbens; design: species or system rat
Experimental: FIG. 3. In vivo microdialysis of extracellular dopamine in the nucleus accumbens at concentrations of 1, 10, and 100 μM of RTI-4793-14. All values are mean ±SEM (n=4). Group comparisons are made with one-way ANOVA and the Dunnetts t-test *p<0.05 and **p<0.01.
FIG. 4. Effects of systemic RTI-4793-14 (5 mg/kg, i.v.) on extracellular dopamine in the nucleus accumbens. All values are mean ± SEM (n=3). Group comparisons are made with one-way ANOVA and the Dunnetts t-test *p<0.05 and **p<0.01. FIG. 5. Schematic diagram for the synthesis of RTI-4793-41 and RTI-4793-48 compounds and analogs thereof.
Male Sprague Dawley rats (350-450 g) were anesthetized with chloral hydrate (400 mg/kg; 100 mg/ml) and supplemented as required (90 mg/kg) to abolish the corneal reflex. Animals were then placed in a stereotaxic frame and dialysis probes (CMA 12, 2 mm) were implanted into the nucleus accumbens (AP:+2mm, LAT:+l.5mm, H:-7.5mm relative to bregma) according to the atlas of Paxinos and Watson (Paxinos, G. "The rat brain in stereotaxic coordinates." (New York: Academic Press, 1982)). The dialysis probes were perfused with a physiological medium containing 145 mM NaCl, 4 mM KCl, 1.3 mM CaCl2, and 2 mM Na2 HPO41 the final pH of the medium being pH 7.4. The probes were dialyzed at a flow rate of […]. and samples were collected every 15 min.
The dialysis probes were allowed to equilibrate for 1-2 hours prior to collection of the baseline samples. […] RTI-4793-14 (1-100 μM) was then administered focally via the dialysis probe for a 15 min. sampling period at the end of which normal dialysis medium was dialyzed through the probe. Sampling continued for a further 3 samples before application of the subsequent concentration of RTI-4793-14. In a subsequent group of animals RTI-4793-14 was administered systemically (5mg/kg; 5mg/ml) via a femoral vein catheter.
The samples were analyzed for DA using HPLC with electrochemical detection. The mobile phase (75 mM NaH2 PO4, 1.5 mM sodium dodecyl sulphate, 20 mM EDTA, 15% acetonitrile and 12% methanol, pH 5.6) was filtered and degassed before pumping at a rate of 0.75 ml/min. through a HR-80 column (3m BDS, 80×4.6 mm). Electrochemical detection-was performed using a Coulochem II with Guard cell:+350 mV, Det 1: -75 mV, and Det 2: +22 mV.
In vivo microdialysis data were analyzed by using a one-way ANOVA and post-hoc Dunnetts t-test. In the focal RTI experiments in which 3 drug concentrations were administered, the baseline value for dopamine was defined as the sample preceding the application of each drug concentration. Analysis of any drug effect was therefore made comparing the baseline value prior to the drug administration.

[2] = tested on: eleven neurotransmitter, four regulatory site, four ion channel, and three second-messenger assays; assay: NovaScreen/NIMH Psychoactive Drug Discovery Program panel; conditions: 10^-5 M
Experimental: Compound 3b also was tested in the NovaScreen/NIMH Psychoactive Drug Discovery Program which included eleven neurotransmitter, four regulatory site, four ion channel, and three second-messenger assays.

c1ccc(C2(N3CCCCC3)CCCCC2)cc1 [PCP, phencyclidine]
affinity at the DA transporter labeled with [^3 H]mazindol (DA transporter): low affinity

CN1[C@H](Cc2ccccc2)C[C@H]2Cc3ccccc3[C@H]21 (relative stereo) [RTI-4793-14, (2RS, 3aSR, 8aRS)-1,2,3a,8,8a-Hexahydro-2-benzyl-1-methyl-indeno[1,2-b]pyrrole]
increase in extracellular DA ([1]; focal application via the microdialysis probe, 1 μM): about 2 fold
increase in extracellular DA ([1]; focal application via the microdialysis probe, 10 μM): ~8 fold
increase in extracellular DA ([1]; intravenous, 5 mg/kg): about 2 fold
effect on extracellular dopamine in words ([1]; local or systemic administration in rats): increased extracellular DA; also recorded: increase the levels of dopamine in the brain
inhibition in NovaScreen panel [2]: No significant inhibition
